Assays:
[1] = test system: HIV transcription in J-Lat A2 cells; assay: cells; format: cell-based; conditions: for effect on TNFα-mediated activation of gene expression: phenelzine 100-3000 μM, DRB 0.3-10 μM
Procedure: Culhane et al. (2010) J Am Chem Soc 132: 3164-3176. To test the activity of this agent in HIV infection, J-Lat A2 cells were treated with increasing amounts of phenelzine or the CDK inhibitor 5,6-dichloro-1-β-D-ribofuranosyl-1H-benzimidazole (DRB), a known Tat inhibitor.
(§1) FIGS. 7A and 7B. LSD1/KDM1 is a potential drug target in HIV transcription. (A) J-Lat A2 cells were stimulated with 0.08 ng/ml of TNFα in the presence of increasing amounts of phenelzine (100, 300, 1000 or 3000 μM), DRB (0.3, 1, 3 or 10 μM) or dimethylsulfoxide (DMSO) as carrier control overnight. Numbers of GFP+ cells as well as propidium iodide (PI)-negative cells as a measure of intact cell viability were analyzed by flow cytometry. The percentage compared to DMSO-treated control cells was calculated. The average of two independent experiments is shown. (B) Purified resting primary CD4+ T cells were infected at a high multiplicity of infection (M.O.I.) with infectious HIV-NL4-3 luciferase reporter virus. Three days after infection, cells were stimulated with α-CD3 and α-CD28 antibodies in the presence of phenelzine (100, 300, or 1000 μM), DRB (1 or 10 μM) or DMSO overnight followed by analysis for luciferase activity and PI uptake.

J-Lat A2 cells = assay: Cell viability of J-Lat A2 cells (propidium iodide-negative cells, flow cytometry); conditions: at the tested concentrations
Procedure: as §1

[2] = test system: HIV-1 NL4-3 luciferase reporter virus in primary CD4+ T cells
Procedure: as §1

primary CD4+ T cells = test system: primary CD4+ T cells
Procedure: as §1

[3] = molecular target: C-terminal FLAG tagged Tat protein (Tat/FLAG), expressed in cells (HIV) (UniProt P04608); assay: cell-based or functional assay
[4] = test system: histone H3 dimethylated at lysine 4 (in purified total cellular histones)
[5] = molecular target: synthetic Tat protein (aa 1-72), K51 monomethylated (UniProt P04608)

NNCCc1ccccc1 (racemic) [phenelzine, (±)-2-phenylethylhydrazine]
IC50 ([1]; Human immunodeficiency virus 1, J-Lat A2, read-out: IC50, prevention of TNFα-mediated activation of gene expression (GFP+ cells)): 300 µM | concentrations needed relative to DRB ([1]; J-Lat A2 cells, TNFα-stimulated): ~150 fold | effect on TNFα-mediated activation of gene expression ([1]; J-Lat A2 cells): prevented TNFα-mediated activation of gene expression in a dose-dependent manner | cell toxicity (PI-negative cells) (J-Lat A2 cells): No cell toxicity was observed | basal expression of luciferase ([2]; nonactivated primary T cells): suppressed the basal expression of luciferase in nonactivated cells | activation of luciferase expression ([2]; primary CD4+ T cells of two donors, α-CD3/α-CD28 stimulation, phenelzine 100-1000 μM): successfully suppressed | suppression of HIV gene expression compared with DRB ([2]; primary T cells): more efficient in suppressing HIV gene expression than DRB | cell viability (PI uptake) (primary CD4+ T cells): slight decrease in cell viability was observed in one donor

OC[C@H]1O[C@@H](n2cnc3cc(Cl)c(Cl)cc32)[C@H](O)[C@@H]1O [DRB, 5,6-dichloro-1-β-D-ribofuranosyl-1H-benzimidazole]
effect on TNFα-mediated activation of gene expression ([1]; J-Lat A2 cells): prevented TNFα-mediated activation of gene expression in a dose-dependent manner | cell toxicity (PI-negative cells) (J-Lat A2 cells): No cell toxicity was observed

endogenous LSD1/KDM1 (lysine-specific demethylase-1) in cells (from UniProt O60341 1-852) (enzyme)
decrease in Tat transactivation of the HIV LTR luciferase reporter in HeLa cells after LSD1/KDM1 siRNA [3]: 50%

recombinant LSD1/KDM1 (His-tagged, prokaryotic expression)
in vitro demethylation of purified histones, western blot with α-Me2H3K4 [4]: LSD1/KDM1 also demethylated its cognate substrate, dimethyl lysine 4 in histone H3, as expected | in vitro demethylation, western blot with α-Me1K51 Tat antibodies [5]: Recombinant LSD1/KDM1 demethylated synthetic monomethylated Tat in a dose-dependent manner
